Calls of active or inactive are those of the source. No cut-off for these calls is given here.
Key:
[1] = Half-life in human; format: ADME
[2] = Half-life in human plasma at 40 mg,po administered once daily; format: ADME, cell-free
[3] = Half-life in dog at 0.5 mg/kg, iv; format: ADME, organism-based, Canis lupus familiaris; settings: in vivo
[4] = Half-life in Sprague-Dawley rat at 2 mg/kg, iv; format: ADME, organism-based; settings: in vivo
[5] = target: T1, Orexin receptor type 2 (Homo sapiens, UniProt O43614); experiment: Antagonist activity at human recombinant OX2R expressed in CHOK1 cells assessed as inhibition of orexin A-induced intracellular Ca2+ release preincubated for 30 mins followed by orexin-A stimulation by Fluo-4AM dye based fluorescence analysis; format: functional, cell-based, CHO-K1
T1 sequence (O43614 whole entry): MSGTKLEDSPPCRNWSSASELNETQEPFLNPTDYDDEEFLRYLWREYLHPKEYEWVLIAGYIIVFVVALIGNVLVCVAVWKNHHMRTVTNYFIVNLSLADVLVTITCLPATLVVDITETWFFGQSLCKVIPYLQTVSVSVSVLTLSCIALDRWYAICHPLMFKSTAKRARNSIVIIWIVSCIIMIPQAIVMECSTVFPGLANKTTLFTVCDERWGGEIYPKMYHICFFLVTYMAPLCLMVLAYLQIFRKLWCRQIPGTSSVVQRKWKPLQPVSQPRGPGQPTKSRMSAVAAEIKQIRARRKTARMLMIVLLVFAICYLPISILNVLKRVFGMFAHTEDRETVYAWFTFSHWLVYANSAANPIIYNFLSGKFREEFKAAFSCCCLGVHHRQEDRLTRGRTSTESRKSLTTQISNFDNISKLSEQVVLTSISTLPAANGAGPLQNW

[6] = target: T2, Orexin/Hypocretin receptor type 1 (Homo sapiens, UniProt O43613); experiment: Antagonist activity at human recombinant OX1R expressed in CHOK1 cells assessed as inhibition of orexin A-induced intracellular Ca2+ release preincubated for 30 mins followed by orexin-A stimulation by Fluo4-AM dye based fluorescence analysis; format: functional, cell-based, CHO-K1
T2 sequence (O43613 whole entry): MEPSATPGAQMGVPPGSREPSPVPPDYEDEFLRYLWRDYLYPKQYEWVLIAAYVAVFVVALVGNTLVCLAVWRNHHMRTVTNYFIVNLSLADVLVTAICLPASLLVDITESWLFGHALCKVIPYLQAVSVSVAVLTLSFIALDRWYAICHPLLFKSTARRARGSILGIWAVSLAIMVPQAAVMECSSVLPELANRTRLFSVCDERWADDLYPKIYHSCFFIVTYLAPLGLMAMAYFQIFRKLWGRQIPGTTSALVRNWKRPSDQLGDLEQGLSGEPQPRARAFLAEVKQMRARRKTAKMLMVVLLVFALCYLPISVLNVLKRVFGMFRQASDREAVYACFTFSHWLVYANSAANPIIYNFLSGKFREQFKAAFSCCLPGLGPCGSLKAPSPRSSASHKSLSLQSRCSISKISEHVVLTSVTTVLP

[7] = Lipophilicity, log D of the compound at pH 7.4 by HPLC analysis; format: physicochemical; settings: buffer
[8] = test system: Rattus norvegicus; experiment: Sleep-promoting activity in ip dosed Wistar rat by polysomnography; format: functional; settings: read-out: MED
[9] = Half-life in human at 10 to 80 mg, po administered as single dose; format: ADME, organism-based; settings: in vivo
[10] = Plasma protein binding in dog at 2 ug/mL; format: ADME, cell-free, Canis lupus familiaris; settings: read-out: PPB (converted)
[11] = Clearance in Sprague-Dawley rat at 1 mg/kg or 2 mg/kg, iv; format: ADME, organism-based; settings: in vivo
[12] = Plasma protein binding in Sprague-Dawley rat at 2 ug/mL; format: ADME, cell-free; settings: read-out: PPB (converted)
[13] = target: T3, Orexin receptor type 2 (Rattus norvegicus) (UniProt P56719); experiment: Antagonist activity at rat recombinant OX2R expressed in CHOK1 cells assessed as inhibition of orexin A-induced intracellular Ca2+ release preincubated for 30 mins followed by orexin-A stimulation by Fluo4-AM dye based fluorescence analysis; format: functional, cell-based; settings: CHO-K1
T3 sequence (whole entry): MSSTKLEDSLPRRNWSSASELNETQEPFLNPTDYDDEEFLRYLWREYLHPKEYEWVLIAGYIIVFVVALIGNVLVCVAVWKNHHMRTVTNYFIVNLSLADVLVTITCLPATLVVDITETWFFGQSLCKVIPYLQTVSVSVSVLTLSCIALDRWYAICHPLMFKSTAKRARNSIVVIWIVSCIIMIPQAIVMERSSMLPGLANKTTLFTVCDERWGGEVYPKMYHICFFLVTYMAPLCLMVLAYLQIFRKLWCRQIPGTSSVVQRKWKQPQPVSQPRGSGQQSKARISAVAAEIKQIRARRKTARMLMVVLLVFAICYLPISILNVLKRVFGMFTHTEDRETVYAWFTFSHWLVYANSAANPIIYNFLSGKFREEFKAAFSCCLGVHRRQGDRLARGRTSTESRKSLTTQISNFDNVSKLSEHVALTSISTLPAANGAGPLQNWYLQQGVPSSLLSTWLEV

[14] = Chemical stability of the compound in JP 1st fluid at pH 1.2 at 37 degC incubated for 24 hrs; format: physicochemical; settings: buffer, pH 1.2, 24 h
[15] = Drug uptake in cerebrospinal fluid in Sprague-Dawley rat at 3 mg/kg, po measured after 1 hr; format: ADME, organism-based; settings: read-out: Drug uptake
[16] = Tmax in Sprague-Dawley rat at 3 mg/kg, po; format: ADME, organism-based; settings: in vivo
[17] = Oral bioavailability in dog at 3 mg/kg; format: ADME, organism-based, Canis lupus familiaris; settings: in vivo
[18] = Oral bioavailability in Sprague-Dawley rat at 3 mg/kg; format: ADME, organism-based; settings: in vivo
[19] = Drug metabolism in dog liver microsomes incubated for 15 mins; format: ADME, Canis lupus familiaris, Microsome; settings: read-out: Drug metabolism
[20] = test system: Rattus norvegicus; experiment: Sleep-promoting activity in po dosed Wistar rat assessed as increase in total sleep administered 10 mins prior to the onset of dark period measured every 20s for 2 hrs by polysomnography; format: functional, organism-based
[21] = test system: Rattus norvegicus; experiment: Sleep-promoting activity in po dosed Wistar rat administered 10 mins prior to the onset of dark period measured every 20s for 2 hrs by polysomnography; format: functional; settings: read-out: MED
[22] = target: P-gp (ABCB1) (Homo sapiens, UniProt P08183); experiment: Substrate activity at P-gp (unknown origin) assessed as efflux ratio; format: ADME; settings: not told
P-gp (ABCB1), sequence (P08183 whole entry): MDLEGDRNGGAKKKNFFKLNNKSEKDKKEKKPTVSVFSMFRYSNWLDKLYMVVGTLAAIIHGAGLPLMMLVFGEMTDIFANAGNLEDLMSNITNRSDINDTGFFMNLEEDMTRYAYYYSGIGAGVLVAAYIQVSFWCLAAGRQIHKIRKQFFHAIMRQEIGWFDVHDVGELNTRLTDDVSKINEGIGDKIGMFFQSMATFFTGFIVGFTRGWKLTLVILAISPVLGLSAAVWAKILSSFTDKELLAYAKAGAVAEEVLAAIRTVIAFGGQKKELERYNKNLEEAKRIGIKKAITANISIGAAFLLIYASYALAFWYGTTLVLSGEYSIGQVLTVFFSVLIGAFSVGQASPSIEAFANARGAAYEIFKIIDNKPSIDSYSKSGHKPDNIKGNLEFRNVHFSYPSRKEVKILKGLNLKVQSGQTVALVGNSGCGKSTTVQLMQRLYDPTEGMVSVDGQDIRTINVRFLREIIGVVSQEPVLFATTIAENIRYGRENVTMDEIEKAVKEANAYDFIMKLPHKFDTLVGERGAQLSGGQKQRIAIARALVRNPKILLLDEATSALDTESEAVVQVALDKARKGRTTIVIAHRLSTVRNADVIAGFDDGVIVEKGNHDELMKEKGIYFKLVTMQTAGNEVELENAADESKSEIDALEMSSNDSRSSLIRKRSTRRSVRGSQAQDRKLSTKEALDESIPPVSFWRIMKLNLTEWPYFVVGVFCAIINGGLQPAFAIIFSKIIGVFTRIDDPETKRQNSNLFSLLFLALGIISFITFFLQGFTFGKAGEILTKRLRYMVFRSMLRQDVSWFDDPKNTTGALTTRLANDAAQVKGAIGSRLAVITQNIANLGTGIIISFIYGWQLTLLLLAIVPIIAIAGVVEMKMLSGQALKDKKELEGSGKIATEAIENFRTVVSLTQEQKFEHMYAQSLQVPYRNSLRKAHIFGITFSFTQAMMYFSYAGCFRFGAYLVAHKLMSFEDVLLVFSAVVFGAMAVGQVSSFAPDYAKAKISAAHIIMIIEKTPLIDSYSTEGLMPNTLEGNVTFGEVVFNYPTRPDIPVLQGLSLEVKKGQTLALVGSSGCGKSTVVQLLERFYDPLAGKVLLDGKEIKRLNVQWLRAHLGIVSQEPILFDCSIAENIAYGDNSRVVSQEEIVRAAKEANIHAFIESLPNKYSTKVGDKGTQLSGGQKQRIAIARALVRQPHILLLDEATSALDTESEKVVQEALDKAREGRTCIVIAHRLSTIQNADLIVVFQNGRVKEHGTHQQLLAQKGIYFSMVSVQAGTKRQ

[23] = Clearance in dog at 0.5 mg/kg, iv; format: ADME, organism-based, Canis lupus familiaris; settings: in vivo
[24] = Ratio of drug level in brain to plasma in Sprague-Dawley rat at 3 mg/kg, po; format: ADME, organism-based
[25] = test system: Rattus norvegicus; experiment: Sleep-promoting activity in Wistar rat assessed as fast sleep onset latency at 1 to10 mg/kg, po administered 10 mins prior to the onset of dark period measured every 20s for 2 hrs by polysomnography; format: functional, organism-based
[26] = Half-life in Sprague-Dawley rat at 1 mg/kg or 2 mg/kg, iv; format: ADME, organism-based; settings: in vivo
[27] = Volume of distribution in dog at 0.5 mg/kg, iv; format: ADME, organism-based, Canis lupus familiaris; settings: in vivo
[28] = Tmax in dog at 3 mg/kg, po; format: ADME, organism-based, Canis lupus familiaris; settings: in vivo
[29] = Volume of distribution in Sprague-Dawley rat at 1 mg/kg or 2 mg/kg, iv; format: ADME, organism-based; settings: in vivo
[30] = Ratio of drug level in cerebrospinal fluid to plasma in Sprague-Dawley rat at 3 mg/kg, po; format: ADME, organism-based; settings: csf
[31] = Drug metabolism in rat liver microsomes incubated for 15 mins; format: ADME, Microsome; settings: read-out: Drug metabolism
[32] = Drug metabolism in human liver microsomes incubated for 15 mins; format: ADME, Microsome; settings: read-out: Drug metabolism
[33] = target: T4, Orexin/Hypocretin receptor type 1 (Rattus norvegicus) (UniProt P56718); experiment: Antagonist activity at rat recombinant OX1R expressed in CHOK1 cells assessed as inhibition of orexin A-induced intracellular Ca2+ release preincubated for 30 mins followed by orexin-A stimulation by Fluo4-AM dye based fluorescence analysis; format: functional, cell-based; settings: CHO-K1
T4 sequence (whole entry): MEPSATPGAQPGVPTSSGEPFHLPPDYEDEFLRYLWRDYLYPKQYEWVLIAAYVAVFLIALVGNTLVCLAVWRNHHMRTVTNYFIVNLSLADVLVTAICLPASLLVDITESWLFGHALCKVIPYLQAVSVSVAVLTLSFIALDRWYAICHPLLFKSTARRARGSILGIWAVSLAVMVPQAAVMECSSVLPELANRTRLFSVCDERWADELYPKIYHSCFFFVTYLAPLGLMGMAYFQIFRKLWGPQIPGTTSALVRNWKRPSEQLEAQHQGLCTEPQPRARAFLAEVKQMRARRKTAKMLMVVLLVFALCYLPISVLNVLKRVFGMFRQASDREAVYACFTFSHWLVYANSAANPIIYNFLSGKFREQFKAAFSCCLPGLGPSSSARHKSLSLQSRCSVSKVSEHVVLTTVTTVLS

COc1ccc(-n2nccn2)c(C(=O)N2CCC[C@@]2(C)c2nc3c(C)c(Cl)ccc3[nH]2)c1 [DARIDOREXANT]
half-life [1]: 6 h

Cc1ccc(-n2nccn2)c(C(=O)N2CCN(c3nc4cc(Cl)ccc4o3)CC[C@H]2C)c1 [SUVOREXANT]
half-life [2]: 12 h

CCN(CCn1ccc(-c2ccc(F)cn2)n1)C(=O)c1ccccc1-n1nccn1
half-life [3]: 1.07 h
half-life [4]: 0.412 h
IC50 [5]: 38.7 nM
IC50 [6]: 20.6 nM
logD [7]: 2.53
minimal effective dose [8]: 3 mg/kg

Cc1cc(C)nc(N2CC3CN(C(=O)c4c(F)cccc4-n4nccn4)CC3C2)n1 (configuration not stated) [SELTOREXANT]
half-life [9]: 2 h

Cc1ccc(-n2nccn2)c(C(=O)N2CCCO[C@H]2Cn2ccc(-c3ccc(F)cn3)n2)c1
fraction unbound at 2 ug/mL [10]: 0.036
half-life [3]: 1.16 h
IC50 [5]: 1.27 nM
clearance [11]: 39.5 mL/min/kg
fraction unbound at 2 ug/mL [12]: 0.12
Kb [13]: 0.8 nM
Stability [14]: Stable
concentration at 1 h [15]: 2.23 nM
Tmax [16]: 0.333 h
bioavailability [17]: 61.6%
bioavailability [18]: 5.5%
IC50 [6]: 1.05 nM
metabolised at 0.25 h [19]: 10.5%
Activity [20]: Dose-dependent effect
logD [7]: 2.58
minimal effective dose [21]: 1 mg/kg
efflux ratio [22]: 2.43
clearance [23]: 2.65 mL/min/kg
Ratio [24]: 13.5%
Activity [25]: Active
half-life [26]: 0.238 h
Vd [27]: 0.294 L/kg
Tmax [28]: 0.583 h
Vd [29]: 0.853 L/kg
Ratio [30]: 3.1%
metabolised at 0.25 h [31]: 51%
metabolised at 0.25 h [32]: 34.4%
Kb [33]: 0.44 nM
